Test results from patent US20240261312A1 (priority 2021, published 2024).
Several values for one entry are separate records, joined by “and”; a condition that tells them apart may be missing. Equal values may be shown once. Read-outs that look alike come from different tables or passages of the source.

Tests used:
[1] = in adult dogs; cited from earlier work
[2] = cited from earlier work
[3] = in turkeys; cited from earlier work
[4] = cited from earlier work; remark: listed apart in the source
[5] = in horses; cited from earlier work
[6] = in cats; cited from earlier work
MDBK cells = conditions: concentrations of up to 1.0 microg/mL
[7] = tested on: bovine viral diarrhea virus (BVDV); format: cell-based; conditions: MDBK cells, 48-h time point
[8] = tested on: Omsk hemorrhagic fever virus; format: cell-based
HRT cells = conditions: concentrations of up to 1.0 microg/mL
rhinovirus = assay: Antiviral activity against rhinovirus; format: cell-based; conditions: concentrations and assays employed herein
bovine coronavirus (BCV) = format: cell-based; conditions: HRT cells, therapeutic
cells = conditions: up to concentrations of 1 microg/mL
MARC 145 cells = conditions: concentrations of up to 1.0 microg/mL
[9] = tested on: Human adenovirus (HAdv-C5); assay: Antiviral activity against human adenovirus; format: cell-based
[10] = tested on: Alkhuma hemorrhagic fever virus; format: cell-based
[11] = tested on: Kyasanur forest disease virus; format: cell-based
dengue fever virus = assay: Antiviral activity against dengue fever virus; format: cell-based
murine coronavirus = conditions: reported; cited from earlier work
[12] = tested on: bovine viral diarrhea virus (BVDV); format: cell-based; conditions: 30 min preincubation, 0.1 to 1.0 ug/ml oleandrin
BT cells = conditions: concentrations of up to 1.0 microg/mL

SMILES: C[C@H]1O[C@@H](O[C@H]2[C@@H](O)C[C@H](O[C@H]3[C@@H](O)C[C@H](O[C@H]4CC[C@@]5(C)[C@H](CC[C@@H]6[C@@H]5C[C@@H](O)[C@]5(C)[C@@H](C7=CC(=O)OC7)CC[C@]65O)C4)O[C@@H]3C)O[C@@H]2C)C[C@H](O)[C@@H]1O [digoxin]
- half-life [1]: 4 to 6 h
- half-life ([2]; in calves): 5 to 7 h
- half-life ([2]; in cattle): 7 to 9 h
- half-life [3]: 10 to 12 h
- half-life ([4]; in ewes and lambs): 13 to 15 h
- half-life ([4]; in sheep): 7 to 8 h
- half-life [5]: 16 to 18 h and 10 to 23 h
- half-life [6]: 9 to 12 h

SMILES: CO[C@H]1C[C@H](O[C@H]2CC[C@@]3(C)[C@H](CC[C@@H]4[C@@H]3CC[C@]3(C)[C@@H](C5=CC(=O)OC5)[C@@H](OC(C)=O)C[C@]43O)C2)O[C@@H](C)[C@@H]1O [oleandrin]
- toxicity to MDBK cells (MDBK cells): not toxic
- reduction of viral infectivity relative to control [7]: 98-100%
- antiviral activity [8]: inactive
- toxicity to HRT cells (HRT cells): not toxic
- antiviral activity (inhibition of viral replication) (rhinovirus): inactive
- concentration range over which efficacious (bovine coronavirus (BCV)): ≥ 0.01 µg/mL
- toxicity by release of lactate dehydrogenase (cells): no additional toxicity over control vehicle
- toxicity to MARC 145 cells (MARC 145 cells): not toxic
- antiviral activity [9]: inactive
- antiviral activity [10]: inactive
- antiviral activity [11]: inactive
- antiviral activity (dengue fever virus): inactive
- antiviral activity (murine coronavirus): inactive
- inhibition of infectivity of progeny [12]: 85-93%
- toxicity to BT cells (BT cells): not toxic
